Laboratory results: patent US7169816B2, “4-bromo or 4-iodo phenylamino benzhydroxamic acid derivatives and their use as MEK inhibitors” (Warner-Lambert Company, priority 1997, dated 2007)
Read-outs that look alike come from different tables or passages of the source. Blank lines part the entries; values can stand above or below the molecule they belong to.

Assays:
p45MEK (GST-MEK) = p45MEK (GST-MEK) (Homo sapiens, UniProt Q02750); assay: Cascade assay for inhibitors of the MAP kinase pathway (in vitro); assay type: biochemical
Protocol: Incorporation of ^32P into myelin basic protein (MBP) was assayed in the presence of a glutathione S-transferase fusion protein containing p44MAP kinase (GST-MAPK) and a glutathione S-transferase fusion protein containing p45MEK (GST-MEK). The assay solution contained 20 mM HEPES, pH 7.4, 10 mM MgCl2, 1 mM MnCl2, 1 mM EGTA, 50 μM [γ-^32P]ATP, 10 μg GST-MEK, 0.5 μg GST-MAPK and 40 μg MBP in a final volume of 100 μL. […] Compounds were assessed at 10 μM for ability to inhibit incorporation of ^32P.
To ascertain whether compounds were inhibiting GST-MEK or GST MAPK, two additional protocols were employed. In the first protocol, compounds were added to tubes containing GST-MEK, followed by addition of GST-MAPK, MBP and [γ-^32P]ATP. In the second protocol, compounds were added to tubes containing both GST-MEK and GST-MAPK, followed by MBP and [γ-^32P]ATP.

[1] = system: activation of MAP kinase in whole cells; assay: Whole cell MAP kinase assay (in vivo, cell culture); assay type: cell-based
Protocol: To determine if compounds were able to block activation of MAP kinase in whole cells, the following protocol was used: Cells were plated in multi-well plates and grown to confluence. Cells were then serum-deprived overnight. Cells were exposed to the desired concentrations of compound or vehicle (DMSO) for 30 minutes, followed by addition of a growth factor, eg, PDGF (100 ng/mL). After a 5-minute treatment with the growth factor, cells were washed with PBS, then lysed in a buffer consisting of 70 mM NaCl, 10 mM HEPES (pH 7.4), 50 mM glycerol phosphate, and 1% Triton X-100. Lysates were clarified by centrifugation at 13,000×g for 10 minutes. Five micrograms of the resulting supernatants were incubated with 10 μg microtubule associated protein-2 (Map2) for 15 minutes at 30° C. in a final volume of 25 μL containing 50 mM Tris (pH 7.4), 10 mM MgCl2, 2 mM EGTA and 30 μM [γ-^32P]ATP. Reactions were terminated by addition of Laemmli sample buffer. Phosphorylated Map2 was resolved on 7.5% acrylamide gels and incorporated radioactivity determined by autoradiography and subsequent excision of the bands followed by scintillation counting.

[2] = system: murine colon tumor, C26/clone 10; assay: Murine colon tumor C26/clone 10 implanted subcutaneously in mice; assay type: in vivo, Male CD2F1 mice; conditions: for Change in Body Weight / Non-Specific Deaths: Days 1 through 14
Protocol: Male CD2F1 mice (NCI: Charles River, Kingston) were implanted subcutaneously with tumor fragments (approximately 30 mg) in the region of the right axilla on Day 0. […] The vehicle for the test compound, and for control animals, was 10% EtOH/10% Cremophor-EL (Sigma)/80% H2O, pH 5.0. Tumor volumes were recorded three times per week by measuring the length and width of the individual tumors and calculating mass in milligrams according to the formula (a×b^2)/2, where a and b are the length and width of the tumor. Percent treated/control (T/C) was calculated based on the ratio of the median tumor volume of the treated tumors compared with the median tumor volume of control animals on specified measurement days.

Molecule: 4-Fluoro-N-hydroxy-2-(4-cluoro-2-methyl-phenylamino)-benzamide [Example 11]
- IC50 (p45MEK (GST-MEK)): 0.334 µM
- IC50 ([1]; cell culture): 0.5 µM

Molecule: Cc1cc(I)ccc1Nc1c(C(=O)NO)cc(Br)c(F)c1F [Example 2, 5-Bromo-3,4-difluoro-N-hydroxy-2-(4-iodo-2-methyl-phenylamino)-benzamide]
- IC50 (p45MEK (GST-MEK)): 0.003 µM
- melting point: 80 to 90 °C

Molecule: Cc1cc(I)ccc1Nc1c(C(=O)NOCC(C)C)cc(Br)c(F)c1F [Example 99, 5-Bromo-3,4-difluoro-2-(4-iodo-2-methyl-phenylamino)-N-isobutoxy-benzamide]
- IC50 (p45MEK (GST-MEK)): 0.018 µM
- IC50 [1]: 0.5 µM

Molecule: O=C(NOCC1CC1)c1ccc(F)c(F)c1Nc1ccc(I)cc1Cl [Example 95, 3,4-Difluoro-2-(2-chloro-4-iodo-phenylamino)-N-cyclopropylmethoxy-benzamide]
- % Inhibition ([2]; IP, 48 mg/kg/day, Day 15): 59%
- Change in Body Weight ([2]; IP, 48 mg/kg/day): +3 grams
- Non-Specific Deaths ([2]; IP, 48 mg/kg/day): 0/6
- % Inhibition ([2]; IP, 77 mg/kg/day, Day 15): 98%
- Change in Body Weight ([2]; IP, 77 mg/kg/day): +2 grams
- Non-Specific Deaths ([2]; IP, 77 mg/kg/day): 2/5
- % Inhibition ([2]; IP, 124 mg/kg/day, Day 15): 96%
- Change in Body Weight ([2]; IP, 124 mg/kg/day): +3 grams
- Non-Specific Deaths ([2]; IP, 124 mg/kg/day): 1/6
- % Inhibition ([2]; IP, 200 mg/kg/day, Day 15): 100%
- Change in Body Weight ([2]; IP, 200 mg/kg/day): +2 grams
- Non-Specific Deaths ([2]; IP, 200 mg/kg/day): 1/6
- % Inhibition ([2]; PO, 71 mg/kg/day, Day 17): 64%
- Change in Body Weight ([2]; PO, 71 mg/kg/day): +2 grams
- Non-Specific Deaths ([2]; PO, 71 mg/kg/day): 0/6
- % Inhibition ([2]; PO, 115 mg/kg/day, Day 17): 79%
- Change in Body Weight ([2]; PO, 115 mg/kg/day): +2 grams
- Non-Specific Deaths ([2]; PO, 115 mg/kg/day): 1/6
- % Inhibition ([2]; PO, 186 mg/kg/day, Day 17): 75%
- Change in Body Weight ([2]; PO, 186 mg/kg/day): +2 grams
- Non-Specific Deaths ([2]; PO, 186 mg/kg/day): 0/6
- % Inhibition ([2]; PO, 300 mg/kg/day, Day 17): 83%
- Change in Body Weight ([2]; PO, 300 mg/kg/day): +2 grams
- Non-Specific Deaths ([2]; PO, 300 mg/kg/day): 0/6

Molecule: CONC(=O)c1ccc(F)c(F)c1Nc1ccc(I)cc1C [Example 14, 3,4-Difluoro-2-(4-iodo-2-methyl-phenylamino)-N-methoxy-benzamide]
- IC50 (p45MEK (GST-MEK)): 0.061 µM

Molecule: 2-(4-bromo-2-methyl-phenylamino)-4-fluoro-N-hydroxy-benzamide [Example 3]
- IC50 (p45MEK (GST-MEK)): 0.072 µM
- IC50 ([1]; cell culture): 3 µM

Molecule: CCONC(=O)c1cc(Br)c(F)c(F)c1Nc1ccc(I)cc1C [Example 17, 5-Bromo-N-ethoxy-3,4-difluoro-2-(4-iodo-2-methyl-phenylamino)-benzamide]
- IC50 (p45MEK (GST-MEK)): 0.014 µM

Molecule: Cc1cc(I)ccc1Nc1cc(F)ccc1C(=O)NO [Example 1, 4-Fluoro-N-hydroxy-2-(4-iodo-2-methyl-phenylamino)-benzamide]
- IC50 (p45MEK (GST-MEK)): 0.007 µM
- melting point: 61 to 75 °C

Molecule: Cc1cc(I)ccc1Nc1c(C(=O)NOC2CCCC2)ccc(F)c1F [Example 53, N-Cyclopentyloxy-3,4-difluoro-2-(4-iodo-2-methyl-phenylamino)-benzamide]
- IC50 (p45MEK (GST-MEK)): 0.14 µM

Molecule: C#CCCONC(=O)c1ccc(F)c(F)c1Nc1ccc(I)cc1C [Example 29, N-(But-3-ynyloxy)-3,4-difluoro-2-(4-iodo-2-methyl-phenylamino)-benzamide]
- IC50 (p45MEK (GST-MEK)): 0.076 µM

Other lines, results leading:

- IC50 (p45MEK (GST-MEK)): 0.005 µM
- IC50 [1]: 0.3 µM
Molecule: O=C(NOCC1CCC1)c1ccc(F)c(F)c1Nc1ccc(I)cc1Cl [Example 89, 3,4-Difluoro-2-(2-chloro-4-iodo-phenylamino)-N-cyclobutylmethoxy-benzamide]

- IC50 (p45MEK (GST-MEK)): 0.018 µM
- IC50 ([1]; cell culture): 0.014 µM
Molecule: 5-Bromo-N-cyclopropylmethoxy-3,4-difluoro-2-(4-iodo-2-methyl-phenylamino) [Example 58]

- IC50 (p45MEK (GST-MEK)): 0.001 µM
- IC50 [1]: 0.005 µM
Molecule: Cc1cc(I)ccc1Nc1c(C(=O)NO)ccc(F)c1F [Example 84, 3,4-Difluoro-N-hydroxy-2-(4-iodo-2-methyl-phenylamino)-benzamide]

- IC50 (p45MEK (GST-MEK)): 0.003 µM
- IC50 [1]: 0.04 µM
Molecule: O=C(NO)c1ccc([N+](=O)[O-])cc1Nc1ccc(I)cc1Cl [Example 82, 2-(2-Chloro-4-iodo-phenylamino)-N-hydroxy-4-nitro-benzamide]

- IC50 (p45MEK (GST-MEK)): 0.026 µM
- IC50 [1]: > 1 µM
Molecule: Cc1cc(I)ccc1Nc1c(C(=O)NOCC2CCCCC2)cc(Br)c(F)c1F [Example 100, 5-Bromo-N-cyclohexylmethoxy-3,4-difluoro-2-(4-iodo-2-methyl-phenylamino)-benzamide]

- IC50 (p45MEK (GST-MEK)): 0.008 µM
- IC50 [1]: > 1 µM
Molecule: Cc1cc(I)ccc1Nc1c(C(=O)NOCC2CCCC2)cc(Br)c(F)c1F [Example 101, 5-Bromo-N-cyclopentylmethoxy-3,4-difluoro-2-(4-iodo-2-methyl-phenylamino)-benzamide]

- IC50 (p45MEK (GST-MEK)): 0.01 µM
- IC50 [1]: 0.05 µM
Molecule: O=C(NO)c1cc(Br)c(F)c(F)c1Nc1ccc(I)cc1Cl [Example 93, 5-Bromo-2-(2-chloro-4-iodo-phenylamino)-3,4-difluoro-N-hydroxy-benzamide]

- IC50 (p45MEK (GST-MEK)): 0.004 µM
- IC50 [1]: 0.2 µM
Molecule: Cc1cc(I)ccc1Nc1c(C(=O)NOCC2CCC2)cc(Br)c(F)c1F [Example 102, 5-Bromo-N-cyclobutylmethoxy-3,4-difluoro-2-(4-iodo-2-methyl-phenylamino)-benzamide]

- IC50 (p45MEK (GST-MEK)): 0.055 µM
Molecule: O=C(NOC1CCCCO1)c1ccc(F)c(F)c1Nc1ccc(I)cc1Cl (stereo not drawn) [Example 90, 3,4-Difluoro-2-(2-chloro-4-iodo-phenylamino)-N-(tetrahydro-pyran-2-yloxy)-benzamide]

- IC50 (p45MEK (GST-MEK)): 0.035 µM
Molecule: CC=CCONC(=O)c1ccc(F)c(F)c1Nc1ccc(I)cc1C [Example 74, N-(But-2-enyloxy)-3,4-difluoro-2-(4-iodo-2-methyl-phenylamino)-benzamide]

- IC50 (p45MEK (GST-MEK)): 0.008 µM
Molecule: Cc1cc(I)ccc1Nc1c(C(=O)NOCC2CC2)cc(F)c(F)c1F [Example 79, N-Cyclopropylmethoxy-3,4,5-trifluoro-2-(4-iodo-2-methyl-phenylamino)-benzamide]
